Data as given in paper PMC10539361, “Allosteric modulation of the fish taste receptor type 1 (T1R) family by the extracellular chloride ion” (Scientific Reports, 2023).
Where a chain is given by its changes, count along the chain named.

What was measured:
[1] = molecular target: T1, mfT1R2a/mfT1R3 (Oryzias latipes, UniProt Q2MHK2+Q2MHK5); test: Effect of anions, cations and osmotic pressure on cellular responses, cells in 10 mM Cl- buffer, mfT1R2a/mfT1R3; type: cell-based, medaka fish
T1 sequence (Q2MHK5 20-819): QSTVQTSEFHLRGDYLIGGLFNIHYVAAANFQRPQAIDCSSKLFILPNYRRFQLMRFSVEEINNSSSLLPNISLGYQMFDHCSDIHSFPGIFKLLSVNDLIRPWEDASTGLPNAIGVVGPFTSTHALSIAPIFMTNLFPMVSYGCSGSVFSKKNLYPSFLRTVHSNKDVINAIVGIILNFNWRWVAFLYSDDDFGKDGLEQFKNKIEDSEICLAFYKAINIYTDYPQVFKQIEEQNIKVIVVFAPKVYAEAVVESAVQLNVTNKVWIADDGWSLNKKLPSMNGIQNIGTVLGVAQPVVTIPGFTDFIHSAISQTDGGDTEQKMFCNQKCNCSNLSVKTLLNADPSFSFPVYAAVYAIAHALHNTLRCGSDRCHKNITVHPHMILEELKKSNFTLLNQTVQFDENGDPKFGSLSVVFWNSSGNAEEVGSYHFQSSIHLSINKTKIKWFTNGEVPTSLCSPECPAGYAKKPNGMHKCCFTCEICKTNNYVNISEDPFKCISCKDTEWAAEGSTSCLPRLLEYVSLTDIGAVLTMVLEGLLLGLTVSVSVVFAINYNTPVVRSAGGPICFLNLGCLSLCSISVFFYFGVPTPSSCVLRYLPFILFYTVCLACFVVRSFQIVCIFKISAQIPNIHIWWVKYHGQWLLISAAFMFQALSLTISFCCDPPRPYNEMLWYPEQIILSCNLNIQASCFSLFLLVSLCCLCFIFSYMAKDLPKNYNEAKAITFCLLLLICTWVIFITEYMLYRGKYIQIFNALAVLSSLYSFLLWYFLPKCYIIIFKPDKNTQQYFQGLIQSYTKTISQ
T1 sequence (Q2MHK2 20-853): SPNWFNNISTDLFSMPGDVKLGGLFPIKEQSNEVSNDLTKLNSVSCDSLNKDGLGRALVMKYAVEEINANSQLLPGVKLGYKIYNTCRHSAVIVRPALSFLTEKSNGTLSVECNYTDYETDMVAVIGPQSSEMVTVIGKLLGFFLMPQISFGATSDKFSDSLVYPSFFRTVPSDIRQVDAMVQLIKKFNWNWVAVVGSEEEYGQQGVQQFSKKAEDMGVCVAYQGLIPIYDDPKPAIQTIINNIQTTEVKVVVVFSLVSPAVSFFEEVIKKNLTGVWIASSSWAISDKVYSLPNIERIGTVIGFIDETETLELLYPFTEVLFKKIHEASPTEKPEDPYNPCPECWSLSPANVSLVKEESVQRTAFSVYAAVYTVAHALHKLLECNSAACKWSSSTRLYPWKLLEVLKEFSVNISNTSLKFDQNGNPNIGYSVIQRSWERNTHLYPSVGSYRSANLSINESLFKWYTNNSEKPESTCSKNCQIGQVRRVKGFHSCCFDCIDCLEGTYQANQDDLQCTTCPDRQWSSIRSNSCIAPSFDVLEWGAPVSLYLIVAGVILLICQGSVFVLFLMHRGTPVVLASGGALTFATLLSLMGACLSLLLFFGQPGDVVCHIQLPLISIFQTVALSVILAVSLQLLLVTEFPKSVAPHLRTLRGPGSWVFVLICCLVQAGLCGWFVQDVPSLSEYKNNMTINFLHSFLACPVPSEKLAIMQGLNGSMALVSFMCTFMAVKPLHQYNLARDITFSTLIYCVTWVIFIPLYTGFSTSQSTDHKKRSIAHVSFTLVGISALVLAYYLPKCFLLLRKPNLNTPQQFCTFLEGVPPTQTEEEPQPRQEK
Protocol: Cells were seeded in 96-well plates coated with ε-poly-L-lysine at approximately 70,000 cells per well. […] Fluorescence changes were monitored at 2 s intervals, as described above. […] Three independent experiments were conducted for each receptor, and representative results are shown as the mean ± SEM (n = 3 replicates). Statistical tests were conducted using KyPlot version 6.0 (KyensLab Inc., Tokyo, Japan). Statistical significance was set at p < 0.05.

[2] = molecular target: T2, hT1R2/hT1R3 (Homo sapiens, UniProt Q7RTX0+Q8TE23); test: Ca2+ mobilization dose-response assay, stable cells expressing hT1R2/hT1R3 with G16gust44; type: cell-based; details: for sensitivity in high (141.4 mM) Cl- buffer vs 10 mM Cl- buffer: 10 mM vs 141.4 mM Cl- buffer
T2 construct: expressed in transfected cells
T2 sequence (Q8TE23 20-839): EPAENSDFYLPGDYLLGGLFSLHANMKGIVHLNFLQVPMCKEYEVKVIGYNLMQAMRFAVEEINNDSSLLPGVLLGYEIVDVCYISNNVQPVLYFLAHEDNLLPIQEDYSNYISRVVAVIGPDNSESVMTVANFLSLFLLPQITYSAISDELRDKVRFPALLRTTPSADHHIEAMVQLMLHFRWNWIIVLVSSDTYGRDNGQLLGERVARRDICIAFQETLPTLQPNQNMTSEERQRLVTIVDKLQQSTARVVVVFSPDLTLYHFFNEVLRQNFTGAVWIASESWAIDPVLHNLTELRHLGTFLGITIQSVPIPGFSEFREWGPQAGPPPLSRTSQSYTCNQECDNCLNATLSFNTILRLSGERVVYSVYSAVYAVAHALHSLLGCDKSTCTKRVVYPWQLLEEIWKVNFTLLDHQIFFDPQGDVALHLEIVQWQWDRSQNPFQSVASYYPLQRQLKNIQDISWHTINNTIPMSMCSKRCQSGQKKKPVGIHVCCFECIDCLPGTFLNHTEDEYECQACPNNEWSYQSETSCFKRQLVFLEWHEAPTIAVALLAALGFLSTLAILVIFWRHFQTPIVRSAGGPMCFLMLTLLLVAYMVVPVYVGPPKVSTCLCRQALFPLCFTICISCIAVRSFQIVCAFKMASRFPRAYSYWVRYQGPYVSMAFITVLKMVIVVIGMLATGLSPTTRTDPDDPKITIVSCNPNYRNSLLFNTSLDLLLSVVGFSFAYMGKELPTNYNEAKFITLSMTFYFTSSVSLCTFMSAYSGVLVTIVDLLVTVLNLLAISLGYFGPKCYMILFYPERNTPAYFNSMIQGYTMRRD
T2 sequence (Q7RTX0 21-852): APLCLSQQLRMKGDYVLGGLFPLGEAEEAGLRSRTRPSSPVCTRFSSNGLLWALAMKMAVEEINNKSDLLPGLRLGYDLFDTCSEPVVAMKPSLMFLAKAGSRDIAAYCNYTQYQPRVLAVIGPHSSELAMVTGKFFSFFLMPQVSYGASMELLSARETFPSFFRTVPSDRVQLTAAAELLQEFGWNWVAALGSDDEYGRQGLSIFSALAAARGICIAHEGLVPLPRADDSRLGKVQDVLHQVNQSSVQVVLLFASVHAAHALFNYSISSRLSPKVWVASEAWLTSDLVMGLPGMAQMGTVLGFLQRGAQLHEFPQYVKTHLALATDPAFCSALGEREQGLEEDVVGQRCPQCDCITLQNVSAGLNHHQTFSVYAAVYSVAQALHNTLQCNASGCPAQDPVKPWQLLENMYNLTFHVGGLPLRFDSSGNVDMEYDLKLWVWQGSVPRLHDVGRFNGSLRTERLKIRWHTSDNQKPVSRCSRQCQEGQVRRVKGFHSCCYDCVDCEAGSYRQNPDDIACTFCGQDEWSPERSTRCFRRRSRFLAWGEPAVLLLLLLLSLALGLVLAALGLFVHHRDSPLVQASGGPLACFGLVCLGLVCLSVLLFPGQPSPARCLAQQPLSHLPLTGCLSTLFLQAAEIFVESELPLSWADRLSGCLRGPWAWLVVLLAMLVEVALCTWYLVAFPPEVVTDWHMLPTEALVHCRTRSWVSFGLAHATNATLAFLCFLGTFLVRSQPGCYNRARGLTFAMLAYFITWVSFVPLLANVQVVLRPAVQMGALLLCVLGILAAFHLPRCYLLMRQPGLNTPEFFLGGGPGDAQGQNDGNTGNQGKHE
Protocol: (§1) The buffers with lower Cl^− were prepared by progressively replacing NaCl, KCl, CaCl2 and MgCl2 in the buffer with gluconate equivalents[20]. The pH was adjusted to 7.4 with NaOH. Ligands were diluted with the assay buffers at the desired concentrations.
Measurements of the responses of the cells by cell-based assay based on the intracellular Ca^2+ mobilization were carried out as described previously with some modifications[20],[34],[46],[47]. […] The cells were seeded in 96-well plates (clear-bottomed CellBIND surface plate, Corning, Glendale, AZ, USA) coated with ε-poly-L-lysine (Cosmo Bio, Tokyo, Japan) at approximately 70,000 cells per well. After 20 h, the medium was removed and replaced with high Cl^− buffer. After 3 h 30 min incubation at 27 °C, cells were loaded with 5 µM calcium-indicator dye Fluo-8 AM (AAT Bioquest, Sunnyvale, CA, USA) diluted in high Cl^− buffer. After incubation for 30 min at 27 °C, the cells were washed with buffers containing appropriate concentrations of Cl^−. The cellular assay was initiated after 3–5 min of resting and was completed within 5 min. The measurements were made using FlexStation 3 (Molecular Devices, Sunnyvale, CA, USA) at 27 °C. Fluorescence changes (i.e., excitation at 485 nm and emission at 525 nm with a cutoff at 515 nm) were monitored at 2 s intervals. A 100-µL aliquot of assay buffer supplemented with 2 × ligands was added at 20 s, and scanning was continued for an additional 40 s. The response of each well was determined as ∆RFU (delta relative fluorescent units), which was calculated as (maximum fluorescent value)—(minimum fluorescent value). […] Such normalized data from more than three independent experiments are reported as the mean ± standard error of the mean (SEM). Dose‒response fitting curves were calculated by Prism 9 (GraphPad Software, San Diego, CA) using nonlinear regression (log(agonist) vs. response—variable slope), based on the integrated data from the several independent experiments.

[3] = molecular target: T3, hT1R2/hT1R3 T102E (Homo sapiens, UniProt Q7RTX0+Q8TE23, T102E); test: Ca2+ mobilization dose-response assay, site X mutant hT1R2/hT1R3 T102E; details: EC50, [Cl-]o=10 mM; unit inferred
T3 sequence (Q8TE23 20-839): T2 sequence (Q8TE23 20-839)
T3 sequence (Q7RTX0 21-852 T102E): T2 sequence (Q7RTX0 21-852) with T82E
Protocol: as §1
Measurements of the responses of the cells by cell-based assay based on the intracellular Ca^2+ mobilization were carried out as described previously with some modifications[20],[34],[46],[47]. Cell lines stably expressing T1R2, T1R3 and chimeric G-protein α-subunit, G16gust44[48], were constructed using the Flp-In pcDNA5/FRT complete system (Thermo Fisher Scientific, Waltham, MA, USA) described in our previous studies[34],[46]. […] Fluorescence changes (i.e., excitation at 485 nm and emission at 525 nm with a cutoff at 515 nm) were monitored at 2 s intervals. […] The response of each well was determined as ∆RFU (delta relative fluorescent units), which was calculated as (maximum fluorescent value)—(minimum fluorescent value). […] Dose‒response fitting curves were calculated by Prism 9 (GraphPad Software, San Diego, CA) using nonlinear regression (log(agonist) vs. response—variable slope), based on the integrated data from the several independent experiments.

SMILES | additional anion concentration needed to significantly increase the response intensity to L-Gln ([1]; added to 10 mM Cl- buffer with 200 µM L-Gln) [mM] | response to fixed concentration of L-Gln on coapplication ([1]; coapplied with 200 µM L-Gln, cells in 10 mM Cl- buffer, final [Cl-]o up to 60 mM) | cellular response to the salt alone ([1]; without agonist, cells in 10 mM Cl- buffer) | sensitivity in high (141.4 mM) Cl- buffer vs 10 mM Cl- buffer [2] | EC50 ([2]; [Cl-]o=10 mM, unit inferred) [µM] | EC50 [3] [µM]
[Br-].[Na+] [NaBr] | 5 | enhanced | did not elicit | – | – | –
OC[C@H]1O[C@H](O[C@]2(CCl)O[C@H](CCl)[C@@H](O)[C@@H]2O)[C@H](O)[C@@H](O)[C@H]1Cl [sucralose, Sucralose] | – | – | – | comparable | 92.5 | 169
N[C@H](Cc1c[nH]c2ccccc12)C(=O)O [D-tryptophan] | – | – | – | comparable | – | –
